From ChEMBL document CHEMBL3797190, “Development of 3,5-Dinitrobenzylsulfanyl-1,3,4-oxadiazoles and Thiadiazoles as Selective Antitubercular Agents Active Against Replicating and Nonreplicating Mycobacterium tuberculosis” (J Med Chem, 2016) come the findings set out here.

Calls of active or inactive are those of the source. The rule behind the calls is not given here.

The test system of assay [1] is Mycobacterium tuberculosis. The assay can be described thus: Antimycobacterial activity against Mycobacterium tuberculosis H37Ra assessed as growth inhibition at 5 ug/ml preincubated for 1 hr followed by radiolabeling with [14C]-uracil, [14C]-methionine for 24 hrs. Format: functional, organism-based.
The test system of assay [2] is Mycobacterium tuberculosis. The assay can be described thus: Inhibition of proteosynthesis in Mycobacterium tuberculosis H37Ra assessed as reduction of [14C]-methionine incorporation at 5 ug/ml preincubated for 1 hr followed by radiolabeling with [14C]-methionine for 24 hrs by scintillation spectrometry. Format: functional, organism-based.
In assay [3] the test system is Mycobacterium tuberculosis. The assay can be described thus: Inhibition of RNA biosynthesis in Mycobacterium tuberculosis H37Ra assessed as reduction of [14C]-uracil incorporation at 5 ug/ml preincubated for 1 hr followed by radiolabeling with [14C]-uracil for 24 hrs by scintillation spectrometry. Format: functional, organism-based.
For assay [4], the system named is Mycobacterium tuberculosis. The assay can be described thus: Antimycobacterial activity against Mycobacterium tuberculosis H37Rv after 7 days by HTS assay. The note with it: 168 h. In kind it is functional.

As for `NC[C@H]1O[C@H](O[C@H]2[C@H](O)[C@@H](O[C@H]3O[C@H](CO)[C@@H](O)[C@H](N)[C@H]3O)[C@H](N)C[C@@H]2N)[C@H](O)[C@@H](O)[C@@H]1O`, the “growth inhibition (GI)” value in assay [1] is “Active”. In addition, in assay [2], the inhibition entry is “Active”. For the same molecule, in assay [3], the inhibition entry is “inactive”.
A word on the IC90: it is the point of the concentration-response curve where the effect stands at 90%. Low readings indicate an effect from little substance, high ones a need for much substance. As for `COC(=O)CSc1nnc(-c2ccc(C(C)(C)C)cc2)s1`, the IC90 in assay [4] was 620 nM.
On the same count and under the same terms, in the case of `COc1ccc(-c2nnc(SCC(=O)NCCc3ccccc3)o2)cc1` it was 380 nM.
